Measured values reported in US20050208496A1, “Methods of testing for bronchial asthma or chronic obstructive pulmonary disease” (Genox Research, Inc., priority 2002, published 2005).

Test system: respiratory epithelial cells

IL-13: human IL-13 (Peprotech, Inc.) added to the medium at 50 ng/mL to stimulate respiratory epithelial cells
DPP4 (34823_at) expression fold change upon IL-13 stimulation (lot 2, Day 7, AI method): 10 fold
DPYD (38220_at) expression fold change upon IL-13 stimulation (lot 2, Day 7, AI method): 2.1 fold
FADS3 (43394_s_at) expression fold change (lot 2, Day 7, AI method): 9.8 fold
FLJ10261 (43366_at) expression fold change (lot 2, Day 7, AI method): 7.9 fold
FLJ10261 (43963_at) expression fold change (lot 2, Day 7, AI method): 6.2 fold
FLJ14281 (50209_at) expression fold change (lot 2, Day 7, AI method): 2 fold
FLJ22332 (56959_at) expression fold change (lot 2, Day 7, AI method): 3.6 fold
FLJ22693 (53777_at) expression fold change (lot 2, Day 7, AI method): 1.6 fold
G1P3 (1358_s_at) expression, fold change upon IL-13 stimulation (lot 2, Day 7, AI method): 10.9 fold
H11 (56474_at) expression fold change (lot 2, Day 7, AI method): 2.1 fold
HDAC9 (37483_at) expression fold change upon IL-13 stimulation (lot 2, Day 7, AI method): 26.1 fold
HLA-F (37420_i_at) expression, fold change upon IL-13 stimulation (lot 2, Day 7, AI method): 2.8 fold
HLA-F (37421_f_at) expression, fold change upon IL-13 stimulation (lot 2, Day 7, AI method): 2.2 fold
HLA-F (49203_f_at) expression fold change (lot 2, Day 7, AI method): 2.8 fold
HLALS (34427_g_at) expression, fold change upon IL-13 stimulation (lot 2, Day 7, AI method): 2 fold
HS3ST1 (41556_s_at) expression fold change upon IL-13 stimulation (lot 2, Day 7, AI method): 2.5 fold
HSD17B2 (38178_at) expression fold change upon IL-13 stimulation (lot 2, Day 7, AI method): 3.5 fold
HSPA5 (47634_at) expression fold change (lot 2, Day 7, AI method): 2.6 fold
HUMRTVLH3 (34702_f_at) expression, fold change upon IL-13 stimulation (lot 2, Day 7, AI method): 3.1 fold
Human hbc647 mRNA sequence (34759_at) expression, fold change upon IL-13 stimulation (lot 2, Day 7, AI method): 2.9 fold
ICAMt (32640_at) expression fold change upon IL-13 stimulation (lot 2, Day 7, AI method): 4.1 fold
IFI27 (425_at) expression, fold change upon IL-13 stimulation (lot 2, Day 7, AI method): 4.7 fold
IFI27 (48864_at) expression fold change (lot 2, Day 7, AI method): 3.3 fold
IFI30 (39728_at) expression, fold change upon IL-13 stimulation (lot 2, Day 7, AI method): 2.3 fold
IFIT1 (915_at) expression, fold change upon IL-13 stimulation (lot 2, Day 7, AI method): 7.7 fold
IFIT4 (38584_at) expression, fold change upon IL-13 stimulation (lot 2, Day 7, AI method): 3.6 fold
IL13RA2 (1016_s_at) expression fold change upon IL-13 stimulation (lot 2, Day 7, AI method): 36.5 fold
IRF7 (36412_s_at) expression fold change (lot 2, Day 7, AI method): 3.6 fold
IRLB (32961_at) expression fold change (lot 2, Day 7, AI method): 2 fold
ISG15 (1107_s_at) expression, fold change upon IL-13 stimulation (lot 2, Day 7, AI method): 4.3 fold
ISG15 (38432_at) expression, fold change upon IL-13 stimulation (lot 2, Day 7, AI method): 6.9 fold
KIAA0469 (37230_at) expression, fold change upon IL-13 stimulation (lot 2, Day 7, AI method): 3 fold
KIAA0537 (33787_at) expression, fold change upon IL-13 stimulation (lot 2, Day 7, AI method): 4.8 fold
KIAA1199 (36070_at) expression, fold change upon IL-13 stimulation (lot 2, Day 7, AI method): 3.4 fold
KIAA1268 (57050_at) expression fold change (lot 2, Day 7, AI method): 1.7 fold
KIAAI268 (59516_at) expression fold change (lot 2, Day 7, AI method): 5.9 fold
KRT16 (601_s_at) expression fold change (lot 2, Day 7, AI method): 2 fold
LAMP3 (37168_at) expression, fold change upon IL-13 stimulation (lot 2, Day 7, AI method): 3 fold
LOC64116 (40456_at) expression, fold change upon IL-13 stimulation (lot 2, Day 7, AI method): 3 fold
LRPAP1 (36194_at) expression, fold change upon IL-13 stimulation (lot 2, Day 7, AI method): 2.2 fold
MAT2A (32571_at) expression fold change upon IL-13 stimulation (lot 2, Day 7, AI method): 2.9 fold
MDA5 (51920_at) expression fold change (lot 2, Day 7, AI method): 2.8 fold
MED6 (35432_at) expression fold change (lot 2, Day 7, AI method): 2 fold
MET (1609_g_at) expression, fold change upon IL-13 stimulation (lot 2, Day 7, AI method): 3.4 fold
MET (1812_s_at) expression, fold change upon IL-13 stimulation (lot 2, Day 7, AI method): 5.8 fold
MET (35684_at) expression, fold change upon IL-13 stimulation (lot 2, Day 7, AI method): 2.4 fold
MFHAS1 (50388_at) expression fold change (lot 2, Day 7, AI method): 2.4 fold
MICB (35937_at) expression, fold change upon IL-13 stimulation (lot 2, Day 7, AI method): 5.6 fold
MKP-L (38272_at) expression, fold change upon IL-13 stimulation (lot 2, Day 7, AI method): 5.1 fold
MMP7 (668_s_at) expression, fold change upon IL-13 stimulation (lot 2, Day 7, AI method): 2 fold
MP1 (34839_at) expression, fold change upon IL-13 stimulation (lot 2, Day 7, AI method): 2.4 fold
MXI (37014_at) expression fold change (lot 2, Day 7, AI method): 4.2 fold
NCF2 (41038_at) expression fold change (lot 2, Day 7, AI method): 4.2 fold
NFIL3 (37544_at) expression fold change (lot 2, Day 7, AI method): 2.7 fold
NTRK1 (36805_s_at) expression, fold change upon IL-13 stimulation (lot 2, Day 7, AI method): 4.9 fold
OAF (39695_at) expression, fold change upon IL-13 stimulation (lot 2, Day 7, AI method): 11.4 fold
OSF-2 (1451_s_at) expression fold change upon IL-13 stimulation (lot 2, Day 7, AI method): 46.4 fold
PAK2 (1560_g_at) expression, fold change upon IL-13 stimulation (lot 2, Day 7, AI method): 3.8 fold
PITPNB (353_at) expression, fold change upon IL-13 stimulation (lot 2, Day 7, AI method): 2 fold
PITPNB (35017_f_at) expression, fold change upon IL-13 stimulation (lot 2, Day 7, AI method): 2.4 fold
PMCH (32005_at) expression fold change (lot 2, Day 7, AI method): 4.3 fold
PSMB9 (38287_at) expression fold change upon IL-13 stimulation (lot 2, Day 7, AI method): 2.4 fold
PVRL2 (50320_g_at) expression fold change (lot 2, Day 7, AI method): 2.2 fold
RASGRP1 (33291_at) expression fold change (lot 2, Day 7, AI method): 4.2 fold
SECTM1 (41045_at) expression, fold change upon IL-13 stimulation (lot 2, Day 7, AI method): 4.6 fold
SERPINB2 (37185_at) expression fold change (lot 2, Day 7, AI method): 3.4 fold
SERPINB4 (1549_s_at) expression fold change (lot 2, Day 7, AI method): 15 fold
SIAT1 (41352_at) expression fold change upon IL-13 stimulation (lot 2, Day 7, AI method): 2.4 fold
SLC26A4, pendrin (36376_at) expression fold change (lot 2, Day 7, AI method): 58.2 fold
SPHK1 (51923_at) expression fold change (lot 2, Day 7, AI method): 2.5 fold
SSI-1 (41592_at) expression, fold change upon IL-13 stimulation (lot 2, Day 7, AI method): 11.3 fold
STAT1 (32859_at) expression fold change (lot 2, Day 7, AI method): 2.6 fold
STAT1 (33339_g_at) expression fold change (lot 2, Day 7, AI method): 2.5 fold
TGFB2 (1262_s_at) expression fold change upon IL-13 stimulation (lot 2, Day 7, AI method): 5.9 fold
TGM2 (38404_at) expression fold change upon IL-13 stimulation (lot 2, Day 7, AI method): 6 fold
TSPAN-3 (38612_at) expression, fold change upon IL-13 stimulation (lot 2, Day 7, AI method): 2.7 fold
TXNRD1 (39425_at) expression fold change upon IL-13 stimulation (lot 2, Day 7, AI method): 3.3 fold
UFD1L (811_at) expression, fold change upon IL-13 stimulation (lot 2, Day 7, AI method): 3.2 fold
W06879 (57696_at) expression fold change (lot 2, Day 7, AI method): 2 fold
ZNF263 (33288_i_at) expression fold change (lot 2, Day 7, AI method): 2 fold
cig5 (38549_at) expression, fold change upon IL-13 stimulation (lot 2, Day 7, AI method): 7.4 fold
AA045020 (44676_at) expression change (lot 2 Day 7 AI): −7.1
AA053401 (56234_r_at) expression change (lot 2 Day 7 AI): −3.2
AA059445 46293_at expression change (lot 2 Day 7 AI): −11.7
AA059458 (65626_at) expression change (lot 2 Day 7 AI): −4.6
AA079839 (69289_at) expression change (lot 2 Day 7 AI): −2.3
AA151265 (60939_i_at) expression change (lot 2 Day 7 AI): −2.7
AA151265 (60940_r_at) expression change (lot 2 Day 7 AI): −11.6
AA160156 (47578_at) expression change (lot 2 Day 7 AI): −3.1
AA203423 (65699_at) expression change (lot 2 Day 7 AI): −4.7
AA369887 (87539_i_at) expression change (lot 2 Day 7 AI): −2.6
AA398155 (48999_at) expression change (lot 2 Day 7 AI): −3.8
AA400080 (57282_at) expression change (lot 2 Day 7 AI): −4.1
AA422178 (53747_at) expression change (lot 2 Day 7 AI): −32.2
AA428312 (83988_at) expression change (lot 2 Day 7 AI): −5.4
AA442232 (59109_at) expression change (lot 2 Day 7 AI): −2.2
AA456099 (59567_at) expression change (lot 2 Day 7 AI): −3.5
AA772055 46104_at expression change (lot 2 Day 7 AI): −15.1
AA779895 59136_at expression change (lot 2 Day 7 AI): −6.6
ABCC5 1932_at expression change (lot 2 Day 7 AI): −5
AF052107 38262_at expression change (lot 2 Day 7 AI): −6.5
AI264299 (84903_f_at) expression change (lot 2 Day 7 AI): −5.9
AI432375 (49819_at) expression change (lot 2 Day 7 AI): −5
AI669212 55436_at expression change (lot 2 Day 7 AI): −6.9
AI740855 (83076_at) expression change (lot 2 Day 7 AI): −3.5
AI761647 40191_s_at expression change (lot 2 Day 7 AI): −4
